Source: BindingDB's records for patent US20250074919 (Accro Bioscience (HK), 2025)

Biological target: T1, Interleukin-1 receptor-associated kinase 4 (Homo sapiens, UniProt Q9NWZ3)
T1 sequence (Q9NWZ3 whole entry): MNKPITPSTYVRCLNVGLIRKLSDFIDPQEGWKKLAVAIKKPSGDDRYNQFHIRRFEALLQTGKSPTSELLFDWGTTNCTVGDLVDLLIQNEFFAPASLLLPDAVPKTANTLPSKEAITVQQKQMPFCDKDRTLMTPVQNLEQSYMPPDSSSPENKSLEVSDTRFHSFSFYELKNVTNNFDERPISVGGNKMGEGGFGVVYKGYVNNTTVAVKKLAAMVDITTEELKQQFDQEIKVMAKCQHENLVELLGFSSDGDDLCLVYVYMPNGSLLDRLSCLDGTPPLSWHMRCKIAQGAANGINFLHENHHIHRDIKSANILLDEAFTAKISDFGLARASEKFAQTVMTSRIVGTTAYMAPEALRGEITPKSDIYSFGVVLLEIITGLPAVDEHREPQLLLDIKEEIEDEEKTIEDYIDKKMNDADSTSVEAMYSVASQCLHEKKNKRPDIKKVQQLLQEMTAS
Test: Screening Assay Against IRAK4 with ATP
Protocol: Then prepare compounds for testing: Dilute the compound to 50× of the final desired highest inhibitor concentration in reaction by 100% DMSO. […] Transfer 10 μL of the compound from the source plate to a new 96-well plate (intermediate plate) and add 90 μL of Ix kinase buffer. Shake the mixture on the intermediate plate for 10 min. Transfer 5 μL of each well from the 96-well intermediate plate to a 384-well plate in duplicates. Add 10 μL of 2.5× enzyme solution to each well of the 384-well assay plate and incubate at room temperature for 10 min. Add 10 μL, of 2.5×FAM-labeled peptide and ATP solution and incubate at 28° C. for a period of time.

`Cn1cc(-c2cccc(NC(=O)c3cc4oc(N5CCOCC5)nc4nc3N3CCOCC3)n2)cn1` [US20250074919, Example A2] showed an IC50 of 45 nM.
